Article PMC6789573, “Phosphonic Acid Analogues of Phenylglycine as Inhibitors of Aminopeptidases: Comparison of Porcine Aminopeptidase N, Bovine Leucine Aminopeptidase, Tomato Acidic Leucine Aminopeptidase and Aminopeptidase from Barley Seeds” (Pharmaceuticals, 2019)

Tests used:
[1] = target: aminopeptidase from barley seeds; experiment: Inhibition of aminopeptidase from barley seeds (L-Leu-pNa hydrolysis, absorbance at 405 nm); assay type: biochemical, barley (Hordeum vulgare L.); details: for Barley Seed AP Ki + SD / Ki: racemic compounds, apparent Ki ± SD, 50 mM Tris-HCl pH 8.0, 37 °C, substrate L-Leu-pNa, in = inactive at a concentration of 1 mM; for inhibitory action: barley enzyme; for Ki: read-out: Barley Seed AP Ki + SD
Procedure: Aminopeptidase from barley seeds (Hordeum vulgare L.) was isolated and purified based on the procedure described previously. The following steps were used: (i) ammonium sulfate precipitation, (ii) gel chromatography (Sephadex G-25, Sephacryl HR 300), followed by (iii) ion chromatography (DEAE—Sepharose). The molecular mass of the extracted enzyme was ~58 kDa. Because of the low stability of the concentrated enzyme solution, it was prepared directly before each kinetic study.
(§1) The activity of pAPN (KM = 0.52 mM) was determined as described in the literature. The activity of aminopeptidase from barley seeds was determined at 37 °C in 50 mM Tris-HCl, pH 8.0, containing 50 mM NaCl and 10 mM β-mercaptoethanol using substrate L-leucine-p-nitroanilidine (L-Leu-pNa) dissolved in DMSO. The kinetics parameters of the purified enzyme were measured for L-Leu-pNa at ten final concentrations (ranging from 0.1 to 1.0 mM) and being repeated two times. The KM value of barley seeds aminopeptidase was determined by using the Lineweaver–Burk weighted regression method (see Table S7 and Plot 1 in the Supplementary Information).
The assay mixture of the aminopeptidase from barley seeds, totaling 1.095 mL, contained 50 mM Tris-HCl buffer (pH 8.0) with 50 mM NaCl and 10 mM β-mercaptoethanol, 0.025 mL of the substrate L-Leu-pNa dissolved in DMSO (used in 0.4–0.1 mM range of the final concentration), 0.05 mL of varying concentrations of the potential inhibitor (dependent on the potency of the compound), and 0.02 mL enzyme (0.030 mg of protein).
(§2) The progress of the enzymatic reaction for both enzymes was measured at 37 °C for 10 min and was monitored spectrophotometrically (UV-VIS Spectrophotometer, JASCO V-730) by following the change in absorbance at 405 nm (formation of p-nitroaniline). The extinction coefficient for pNa was 9620 M^−1cm^−1.
(§3) Inhibition constants were determined considering four substrate concentrations and five concentrations of each inhibitor, with each measurement being repeated at least twice.
(§4) The rate of enzymatic reaction was studied following the reaction progress (changes in absorbance of L-Leu-pNa over time). Kinetics constants, namely Ki and IC50, and the type of the inhibition were determined using Lineweaver–Burk, Dixon, and Hanes–Wolf procedures. For each parameter, relative errors were calculated.
The progress of the enzymatic reactions was monitored spectrophotometrically (UV-VIS Spectrophotometer JASCO V-730) by following the change in absorbance at 405 nm (formation of p-nitroanilide). The extinction coefficient for L- […]
The kinetic parameters (KM and Vmax) for aminopeptidase from barley seeds were determined by using the Lineweaver–Burk (L-B) weighted regression method. The measured KM value was 0.21 mM ± 0.14 and was used to determine the inhibitory constants of the all evaluated inhibitors.
Table S7. The kinetic parameters characterizing activity of the isolated aminopeptidase from barley seeds. […]
Lineweaver-Burk regression
Plot S1. Graphical determination of the KM value for aminopeptidase from barley seeds by using Lineweaver-Burk: unweighted (blue line) and weighted (red line) regression method.

[2] = target: T1, porcine aminopeptidase N (pAPN) (Sus scrofa, UniProt P15145); experiment: Inhibition of porcine kidney aminopeptidase N (L-Leu-pNa hydrolysis, absorbance at 405 nm); assay type: biochemical; details: for inhibitory action: pAPN; for pAPN Ki + SD / Ki: racemic compounds, apparent Ki ± SD, 50 mM potassium phosphate pH 7.2, 37 °C, substrate L-Leu-pNa, in = inactive at a concentration of 1 mM
T1 construct: Microsomal leucine aminopeptidase (APN, EC 3.4.11.2) from porcine kidney was purchased from Sigma Aldrich; purchased Sigma Aldrich; host or cells: porcine kidney (tissue-derived)
T1 sequence (P15145 1-963): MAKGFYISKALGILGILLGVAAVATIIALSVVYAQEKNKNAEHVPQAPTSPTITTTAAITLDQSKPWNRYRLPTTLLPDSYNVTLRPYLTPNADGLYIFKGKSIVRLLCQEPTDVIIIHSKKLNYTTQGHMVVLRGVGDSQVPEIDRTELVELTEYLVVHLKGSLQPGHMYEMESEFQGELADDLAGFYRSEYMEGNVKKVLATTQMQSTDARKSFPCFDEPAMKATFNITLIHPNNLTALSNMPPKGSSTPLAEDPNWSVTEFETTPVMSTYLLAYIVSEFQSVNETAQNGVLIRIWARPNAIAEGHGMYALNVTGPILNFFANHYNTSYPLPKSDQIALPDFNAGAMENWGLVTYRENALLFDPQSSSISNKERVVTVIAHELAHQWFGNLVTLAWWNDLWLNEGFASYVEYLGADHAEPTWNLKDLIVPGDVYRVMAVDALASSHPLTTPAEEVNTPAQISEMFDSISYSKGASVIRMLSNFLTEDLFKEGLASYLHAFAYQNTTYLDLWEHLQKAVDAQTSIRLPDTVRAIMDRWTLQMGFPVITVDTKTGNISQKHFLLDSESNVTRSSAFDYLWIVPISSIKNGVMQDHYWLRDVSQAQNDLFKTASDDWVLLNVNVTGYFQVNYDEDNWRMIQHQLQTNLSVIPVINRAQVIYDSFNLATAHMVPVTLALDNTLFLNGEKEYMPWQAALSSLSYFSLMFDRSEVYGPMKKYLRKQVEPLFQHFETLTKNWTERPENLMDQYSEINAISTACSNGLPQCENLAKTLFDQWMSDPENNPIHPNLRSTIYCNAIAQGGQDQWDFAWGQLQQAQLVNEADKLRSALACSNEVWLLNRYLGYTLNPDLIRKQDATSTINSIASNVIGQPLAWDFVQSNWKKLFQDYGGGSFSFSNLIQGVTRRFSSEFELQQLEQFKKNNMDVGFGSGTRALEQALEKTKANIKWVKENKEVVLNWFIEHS
Procedure: Microsomal leucine aminopeptidase (APN, EC 3.4.11.2) from porcine kidney was purchased from Sigma Aldrich. It was applied directly in kinetic measurements after dissolving in 50 mM potassium phosphate (pH 7.2). Such a solution should be stored in 4 °C for no longer than 2 days.
as §1
The assay mixture of the pAPN, totaling 1.01 mL, contained 50 mM potassium phosphate buffer (pH 7.2), 0.025 mL of the substrate L-Leu-pNa dissolved in DMSO (used in 0.4–0.1 mM range of the final concentration), 0.05 mL of the potential inhibitor in reaction buffer (in a concentration dependent on the potency of the compound), and 0.01 mL of the enzyme solution (4µg/mL final concentration).
as §2, §3, §4

## NC(c1ccc(O)cc1F)P(=O)(O)O (centres unmarked) [Compound 14]
[1]
  Barley Seed AP Ki + SD: in ^2

## CC(C)C[C@H](N)C(=O)Nc1ccc([N+](=O)[O-])cc1 [L-Leu-pNa, L-leucine-p-nitroanilidine, reference compound]
[2]; substrate of pAPN
  Km: 520 µM
[1]; substrate of barley seed aminopeptidase, Lineweaver-Burk weighted regression, 37 °C, pH 8.0
  Km: 210 µM

## NC(c1ccc(C(F)(F)F)cc1F)P(=O)(O)O (centres unmarked) [Compound 12]
[2]
  inhibitory action: practically no inhibitory action
  pAPN Ki + SD: in ^2
[1]
  inhibitory action: practically no inhibitory action
  Barley Seed AP Ki + SD: in ^2

## NC(c1ccc(C(F)(F)F)cc1)P(=O)(O)O (centres unmarked) [Compound 10]
[2]
  Ki: 56.3 ± 2.2 µM
[1]
  Ki: 686 ± 70 µM

## NC(c1ccc(Cl)cc1F)P(=O)(O)O (centres unmarked) [Compound 9]
[1]
  Ki: 818 ± 43 µM

## NC(c1cccc(F)c1)P(=O)(O)O (centres unmarked) [Compound 2]
[2]
  Ki: 122 ± 10 µM
[1]
  Ki: 311 ± 27 µM

## NC(c1ccc(F)c(Cl)c1)P(=O)(O)O (centres unmarked) [Compound 7]
[1]
  Ki: 62.1 ± 2.3 µM

## NC(c1c(F)c(F)c(F)c(F)c1F)P(=O)(O)O (centres unmarked) [Compound 13]
[2]
  inhibitory action: practically no inhibitory action
  pAPN Ki + SD: in ^2
[1]
  inhibitory action: practically no inhibitory action
  Barley Seed AP Ki + SD: in ^2

## NC(c1ccccc1F)P(=O)(O)O (centres unmarked) [Compound 1]
[2]
  Ki: 232 ± 22 µM

## NC(c1c(F)cc(F)cc1F)P(=O)(O)O (centres unmarked) [Compound 6]
[2]
  pAPN Ki + SD: in ^2
[1]
  Barley Seed AP Ki + SD: in ^2

## NC(c1ccc(F)cc1F)P(=O)(O)O (centres unmarked) [Compound 4]
[1]
  Ki: 1420 ± 83 µM

## NC(c1cc(F)cc(C(F)(F)F)c1)P(=O)(O)O (centres unmarked) [Compound 11]
[2]
  Ki: 164 ± 7.7 µM
[1]
  Ki: 1030 ± 73 µM

## NC(c1ccc(Cl)c(F)c1)P(=O)(O)O (centres unmarked) [Compound 8]
[1]
  Ki: 103 ± 10 µM

## NC(c1ccc(F)c(F)c1)P(=O)(O)O (centres unmarked) [Compound 5]
[1]
  Ki: 549 ± 54 µM

## NC(c1ccc(F)cc1)P(=O)(O)O (centres unmarked) [Compound 3]
[1]
  Ki: 1100 ± 57 µM
